# Read-outs that look alike come from different tables or passages of the source. *1 amine or outer side, *2 acyl side, *3 side chain or, on linkers, in order; H or OH if unused. Where a SMILES comes first, the peptide text is derived from it. Bridges are numbered along the chain shown (N, C = ends). [ ]: non-standard residue; d: D form. The star is where a group is joined. hPhe(3,5-F2-4-CF3) = N[C@@H](CCc1cc(F)c(C(F)(F)F)c(F)c1)C(=O)O; X39 = CC(C)CCN([C@@H](Cc1ccc(C(F)(F)F)cc1)C(=O)[*:2])[*:1]; hPhe(3-Cl-4-CF3) = N[C@@H](CCc1ccc(C(F)(F)F)c(Cl)c1)C(=O)O; NPrPhe(4-CF3) = CCCN[C@@H](Cc1ccc(C(F)(F)F)cc1)C(=O)O; Pip(4,4-F2) = O=C(O)[C@@H]1CC(F)(F)CCN1; NMeGly(cPent) = CN[C@H](C(=O)O)C1CCCC1; Pro(4,4-Me2) = CC1(C)CN[C@H](C(=O)O)C1; NMeD = CN[C@@H](CC(=O)O)C(=O)O; NMeL = CN[C@@H](CC(C)C)C(=O)O; αMeS = C[C@](N)(CO)C(=O)O; Morpholide = C1CN(*)CCO1; Ac5c = NC1(C(=O)O)CCCC1; Sar = CNCC(=O)O; tBu = CC(C)(C)*
# What was measured:
# [1] = target: GDP-bound HRAS wild-type protein (Homo sapiens, UniProt P01112); assay: Binding to HRAS by surface plasmon resonance (SPR), Single Cycle Kinetics; details: for HRAS/KRAS (ratio of KD value for HRAS to KD value for KRAS) / HRAS/KRAS (ratio of KD value with respect to HRAS to KD value with respect to KRAS): SPR, GDP-bound HRAS wild-type protein vs GDP-bound KRAS wild-type protein
# Sequence of GDP-bound HRAS wild-type protein (P01112 whole entry): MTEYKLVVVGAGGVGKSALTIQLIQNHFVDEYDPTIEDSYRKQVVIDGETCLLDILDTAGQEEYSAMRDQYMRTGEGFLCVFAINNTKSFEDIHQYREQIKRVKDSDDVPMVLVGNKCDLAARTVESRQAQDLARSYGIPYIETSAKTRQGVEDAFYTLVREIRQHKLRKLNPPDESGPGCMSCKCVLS
# [2] = target: GDP-bound KRAS wild-type protein (Homo sapiens, UniProt P01116); assay: Binding to KRAS by surface plasmon resonance (SPR), Single Cycle Kinetics; details: GDP-bound KRAS wild-type protein, read-out: KRAS KD
# Sequence of GDP-bound KRAS wild-type protein (P01116 whole entry): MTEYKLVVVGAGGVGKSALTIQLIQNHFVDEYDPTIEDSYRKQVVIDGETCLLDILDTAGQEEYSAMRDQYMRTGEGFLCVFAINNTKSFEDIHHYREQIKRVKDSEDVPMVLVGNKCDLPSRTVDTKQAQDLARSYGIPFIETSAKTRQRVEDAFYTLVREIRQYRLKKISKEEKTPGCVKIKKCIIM
# [3] = target: GDP-bound NRAS wild-type protein (Homo sapiens, UniProt P01111); assay: Binding to NRAS by surface plasmon resonance (SPR), Single Cycle Kinetics; details: for NRAS/KRAS (ratio of KD value for NRAS to KD value for KRAS) / NRAS/KRAS (ratio of KD value with respect to NRAS to KD value with respect to KRAS): SPR, GDP-bound NRAS wild-type protein vs GDP-bound KRAS wild-type protein
# Sequence of GDP-bound NRAS wild-type protein (P01111 whole entry): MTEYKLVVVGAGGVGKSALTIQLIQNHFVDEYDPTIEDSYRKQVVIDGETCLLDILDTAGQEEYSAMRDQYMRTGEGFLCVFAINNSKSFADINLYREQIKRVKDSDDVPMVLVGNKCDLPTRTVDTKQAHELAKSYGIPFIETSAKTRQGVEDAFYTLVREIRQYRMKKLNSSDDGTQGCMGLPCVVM
# [4] = SPR Single Cycle Kinetics, 1:1 binding model
"Kd ([2]; SPR, Single Cycle Kinetics) [nM]","Kd [2, 4] [nM]",Structure (SMILES),HRAS/KRAS (ratio of KD value for HRAS to KD value for KRAS) [1],NRAS/KRAS (ratio of KD value for NRAS to KD value for KRAS) [3],other results
1.3,,CCC[C@H]1C(=O)N[C@@H](C2CCOCC2)C(=O)N(C)CC(=O)N(C)[C@H]2C/C=C\CCN(C2=O)[C@@H](Cc2ccc(C(F)(F)F)cc2)C(=O)N(C)CC(=O)N[C@@H](CCc2ccc(C(F)(F)F)c(Cl)c2)C(=O)N2C[C@H](OCC)C[C@H]2C(=O)NC2(CC(C)(C)C2)C(=O)N(C)[C@@H](C2CCCC2)C(=O)N(C)[C@H](C(=O)N(C)C)CC(=O)N1C [PP3000],A (a compound having 10 or more and less than 20 is denoted as A),AA (a compound having 20 or more is denoted as AA),
,0.095,CCO[C@@H]1C[C@H]2C(=O)NC3(CC(C)(C)C3)C(=O)N(C)[C@@H](C3CCCC3)C(=O)N(C)[C@H](C(=O)N(C)CC)CC(=O)N(C)[C@@H](CC(C)C)C(=O)N[C@@H]([C@@H](C)CC)C(=O)N(C)CC(=O)N(C)[C@H]3C/C=C\CCN(C3=O)[C@@H](Cc3ccc(C(F)F)cc3)C(=O)N(C)CC(=O)N[C@@H](CCc3ccc(C(F)(F)F)c(Cl)c3)C(=O)N2C1 [PP2829],,,"HRAS/KRAS (ratio of KD value with respect to GDP-bound HRAS wild-type protein to KD value with respect to KRAS) ([1]; SPR KD ratio HRAS/KRAS, class symbols): A (a compound having 10 or more and less than 20 is denoted as A); NRAS/KRAS (ratio of KD value with respect to GDP-bound NRAS wild-type protein to KD value with respect to KRAS) ([3]; SPR KD ratio NRAS/KRAS, class symbols): A (a compound having 10 or more and less than 20 is denoted as A)"
0.28,,CCC[C@H]1C(=O)N[C@@H]([C@@H](C)CC)C(=O)N(C)CC(=O)N(C)[C@H]2C/C=C\CCN(C2=O)[C@@H](Cc2ccc(C(F)(F)F)cc2)C(=O)N(C)CC(=O)N[C@@H](CCc2ccc(C(F)(F)F)c(Cl)c2)C(=O)N2CC3(CC3)C[C@H]2C(=O)NC2(CC(C)(C)C2)C(=O)N(C)[C@@H](CC(C)(C)C)C(=O)N(C)[C@H](C(=O)N(C)C)CC(=O)N1C [PP2979],B (a compound having 3 or more and less than 10 is denoted as B),A (a compound having 10 or more and less than 20 is denoted as A),
0.2,,CCC[C@H]1C(=O)N[C@@H](C2CCCC2)C(=O)N(C)CC(=O)N(C)[C@H]2C/C=C\CCN(C2=O)[C@@H](Cc2ccc(C(F)(F)F)cc2)C(=O)N(C)CC(=O)N[C@@H](CCc2ccc(C(F)(F)F)c(Cl)c2)C(=O)N2C[C@H](OCC)C[C@H]2C(=O)NC2(CC(C)(C)C2)C(=O)N(C)[C@@H](C2CCCC2)C(=O)N(C)[C@H](C(=O)N(C)C)CC(=O)N1C [PP2984],B (a compound having 3 or more and less than 10 is denoted as B),A (a compound having 10 or more and less than 20 is denoted as A),
0.66,,CCC[C@H]1C(=O)N[C@@H]([C@@H](C)CC)C(=O)N(C)CC(=O)N(C)[C@H]2C/C=C\CCN(C2=O)[C@@H](Cc2ccc(C(F)(F)F)cc2)C(=O)N(C)CC(=O)N[C@@H](CCc2ccc(C(F)(F)F)c(Cl)c2)C(=O)N2CC3(CC3)C[C@H]2C(=O)NC2(CC(C)(C)C2)C(=O)N(C)[C@@H](CC(C)C)C(=O)N(C)[C@H](C(=O)N(C)C)CC(=O)N1C [PP2987],A (a compound having 10 or more and less than 20 is denoted as A),AA (a compound having 20 or more is denoted as AA),

# Continued, compound first:
Structure (SMILES),"Kd ([2]; SPR, Single Cycle Kinetics) [nM]","Kd [2, 4] [nM]",HRAS/KRAS (ratio of KD value for HRAS to KD value for KRAS) [1],NRAS/KRAS (ratio of KD value for NRAS to KD value for KRAS) [3],other results
CCC[C@H]1C(=O)N[C@@H]([C@@H](C)CC)C(=O)N(C)CC(=O)N(C)[C@H]2C/C=C\CCN(C2=O)[C@@H](Cc2ccc(C(F)(F)F)cc2)C(=O)N(C)CC(=O)N[C@@H](CCc2ccc(C(F)(F)F)c(OC)c2)C(=O)N2C[C@H](OCC)C[C@H]2C(=O)N(C)C2(CCC2)C(=O)N(C)[C@@H](C2CCCC2)C(=O)N(C)[C@H](C(=O)N(C)C)CC(=O)N1C [PP2312],0.03,,B (a compound having 3 or more and less than 10 is denoted as B),A (a compound having 10 or more and less than 20 is denoted as A),
CC[C@H](C)[C@@H]1NC(=O)[C@H](CC(C)C)N(C)C(=O)C[C@@H](C(=O)N2CCOCC2)N(C)C(=O)[C@H](C2CCCC2)N(C)C(=O)C2(CC2)NC(=O)[C@@H]2CCCN2C(=O)[C@H](CCc2cc(F)c(C(F)(F)F)c(F)c2)NC(=O)CN(C)C(=O)[C@H](Cc2ccc(C(F)(F)F)cc2)N2CCCC[C@@H](C2=O)N(C)C(=O)CN(C)C1=O [PP0559],,0.16,,,HRAS/KRAS (ratio of KD value with respect to HRAS to KD value with respect to KRAS) [1]: B (a compound having 3 or more and less than 10 is denoted as B); NRAS/KRAS (ratio of KD value with respect to NRAS to KD value with respect to KRAS) [3]: B (a compound having 3 or more and less than 10 is denoted as B)
CCO[C@@H]1C[C@H]2C(=O)NC3(CCC3)C(=O)N(C)[C@@H](C3CCCC3)C(=O)N(C)[C@H](C(=O)N(C)CCOC)CC(=O)N(C)[C@@H](CC(C)C)C(=O)N[C@@H]([C@@H](C)CC)C(=O)N(C)CC(=O)N(C)[C@H]3C/C=C\CCN(C3=O)[C@@H](Cc3ccc(C(F)(F)F)cc3)C(=O)N(C)CC(=O)N[C@@H](CCc3cc(F)c(C(F)(F)F)c(F)c3)C(=O)N2C1 [PP1317],,,,,"HRAS/KRAS (ratio of KD value for HRAS to KD value for KRAS) ([1]; KD ratio class): B (a compound having 3 or more and less than 10 is denoted as B); Kd ([2]; SPR, Single Cycle Kinetics, 1:1 binding model): 0.094 nM; NRAS/KRAS (ratio of KD value for NRAS to KD value for KRAS) ([3]; KD ratio class): A (a compound having 10 or more and less than 20 is denoted as A)"
"CCCN1C(=O)CN(C)C(=O)CN(C)C(=O)[C@H]([C@@H](C)CC)NC(=O)[C@H](CC(C)C)N(C)C(=O)C[C@@H](C(=O)N2CCOCC2)N(C)C(=O)[C@H](C2CCCC2)N(C)C(=O)C2(CCCC2)NC(=O)[C@@H]2CC(F)(F)CCN2C(=O)[C@H](CCc2ccc(C(F)(F)F)c(Cl)c2)NC(=O)CN(C)C(=O)[C@@H]1Cc1ccc(C(F)(F)F)cc1 [PP0264] ([NMeL]I[Sar][Sar][NPrPhe(4-CF3)][Sar][hPhe(3-Cl-4-CF3)][Pip(4,4-F2)][Ac5c][NMeGly(cPent)][NMeD]-Morpholide; lactam N-11)",,0.42,C (A compound having a KD ratio of 0.1 or more and less than 3 is denoted as C),B (a compound having 3 or more and less than 10 is denoted as B),
CC[C@H](C)[C@@H]1NC(=O)[C@H](CC(C)C)N(C)C(=O)C[C@@H](C(=O)N2CCOCC2)N(C)C(=O)[C@H](C2CCCC2)N(C)C(=O)C2(CCCC2)NC(=O)[C@@H]2CCCN2C(=O)[C@H](CCc2ccc(C(F)(F)F)c(Cl)c2)NC(=O)CN(C)C(=O)[C@H](Cc2ccc(C(F)(F)F)cc2)N(CCC(C)C)C(=O)CN(C)C(=O)CN(C)C1=O [PP0126] ([NMeL]I[Sar][Sar][X39][Sar][hPhe(3-Cl-4-CF3)]P[Ac5c][NMeGly(cPent)][NMeD]-Morpholide; lactam N-11),,0.43,C (A compound having a KD ratio of 0.1 or more and less than 3 is denoted as C),C (A compound having a KD ratio of 0.1 or more and less than 3 is denoted as C),
"CCCN1C(=O)CN(C)C(=O)CNC(=O)[C@H]([C@@H](C)CC)NC(=O)[C@H](CC(C)C)N(C)C(=O)C[C@@H](C(=O)N2CCOCC2)N(C)C(=O)[C@H](C2CCCC2)N(C)C(=O)C2(CCCC2)NC(=O)[C@@H]2CC(C)(C)CN2C(=O)[C@H](CCc2ccc(C(F)(F)F)c(Cl)c2)NC(=O)CN(C)C(=O)[C@@H]1Cc1ccc(C(F)(F)F)cc1 [PP0448] ([NMeL]IG[Sar][NPrPhe(4-CF3)][Sar][hPhe(3-Cl-4-CF3)][Pro(4,4-Me2)][Ac5c][NMeGly(cPent)][NMeD]-Morpholide; lactam N-11)",,0.15,,,HRAS/KRAS (ratio of KD value with respect to HRAS to KD value with respect to KRAS) [1]: C (A compound having a KD ratio of 0.1 or more and less than 3 is denoted as C); NRAS/KRAS (ratio of KD value with respect to NRAS to KD value with respect to KRAS) [3]: B (a compound having 3 or more and less than 10 is denoted as B)
CCC[C@H]1C(=O)N[C@@H]([C@@H](C)CC)C(=O)N2CCC[C@H]2C(=O)N(C)[C@H]2C/C=C\CCN(C2=O)[C@@H](Cc2ccc(C)cc2)C(=O)N(C)CC(=O)N[C@@H](CCc2ccc(C(F)(F)F)c(OC)c2)C(=O)N2C[C@H](OCC)C[C@H]2C(=O)N(C)C2(CCC2)C(=O)N(C)[C@@H](C2CCCC2)C(=O)N(C)[C@H](C(=O)N(C)C)CC(=O)N1C [PP2332],0.1,,B (a compound having 3 or more and less than 10 is denoted as B),A (a compound having 10 or more and less than 20 is denoted as A),
CC[C@H](C)[C@@H]1NC(=O)[C@H](CC(C)C)N(C)C(=O)C[C@@H](C(=O)N2CCOCC2)N(C)C(=O)[C@H](C2CCCC2)N(C)C(=O)C2(CCCC2)NC(=O)[C@@H]2CCCN2C(=O)[C@H](CCc2cc(F)c(C(F)(F)F)c(F)c2)NC(=O)CN(C)C(=O)[C@H](Cc2ccc(C(F)(F)F)cc2)N2CCCCC[C@@H](C2=O)N(C)C(=O)[C@H](C)NC1=O [PP0481],,850,,,HRAS/KRAS (ratio of KD value with respect to HRAS to KD value with respect to KRAS) [1]: B (a compound having 3 or more and less than 10 is denoted as B); NRAS/KRAS (ratio of KD value with respect to NRAS to KD value with respect to KRAS) [3]: B (a compound having 3 or more and less than 10 is denoted as B)
"CCCN1C(=O)CN(C)C(=O)CN(C)C(=O)[C@H]([C@@H](C)CC)NC(=O)[C@H](CC(C)C)N(C)C(=O)C[C@@H](C(=O)N(C)C)N(C)C(=O)[C@H](C2CCCC2)N(C)C(=O)[C@](C)(COC(C)(C)C)NC(=O)[C@@H]2CCCN2C(=O)[C@H](CCc2cc(F)c(C(F)(F)F)c(F)c2)NC(=O)CN(C)C(=O)[C@@H]1Cc1ccc(C(F)(F)F)cc1 [PP0743] ([NMeL]I[Sar][Sar][NPrPhe(4-CF3)][Sar][hPhe(3,5-F2-4-CF3)]P[αMeS](tBu)[NMeGly(cPent)][NMeD]-NMe2; lactam N-11)",,0.68,,,HRAS/KRAS (ratio of KD value with respect to HRAS to KD value with respect to KRAS) [1]: C (A compound having a KD ratio of 0.1 or more and less than 3 is denoted as C); NRAS/KRAS (ratio of KD value with respect to NRAS to KD value with respect to KRAS) [3]: B (a compound having 3 or more and less than 10 is denoted as B)

# From patent publication US20240158446A1, “CYCLIC COMPOUND HAVING SELECTIVE INHIBITORY ACTION ON KRAS OVER HRAS AND NRAS” (CHUGAI SEIYAKU KABUSHIKI KAISHA, priority 2021, published 2024)
